# According to article PMC6271241, “Several Human Cyclin-Dependent Kinase Inhibitors, Structurally Related to Roscovitine, As New Anti-Malarial Agents” (Molecules, 2014):
# pIC50: −log10 of the molar value. Read-outs that look alike come from different tables or passages of the source.
# Experiments:
# Pf3D7 = experiment: [3H]hypoxanthine incorporation growth assay, Pf3D7; format: cell-based, Plasmodium falciparum; settings: Plasmodium falciparum
# Method: (§1) A selection of 15 molecules 4b–c, 10–13 representing the different 2,6,9-trisubstituted purine series, including newly synthesized products was screened as anti-malarial agents on two different P. falciparum strains, Pf3D7, a standard drug-sensitive African stain, and Pf7G8, a brazilian chloroquino-resistant strain (Figure 3). The compound activity was evaluated during the parasitic erythocytic cycle, by the means of a [^3H] hypoxanthine incorporation assay. It is directly correlated to parasite viability, as described in the experimental section.
# (§2) At first, the activity of the fifteen compounds was screened at three different concentrations (10, 50 and 100 µM) on Pf3D7. Chloroquine which is not a kinase inhibitor, but which is the antimalarial reference drug was used as the positive control. […] Chloroquine was again used as a positive control.
# (§3) Compounds were tested against synchronous ring-stage parasites of Pf3D7 and Pf7G8 strains. Drugs testing were carried out in 96-well microtiter plates. The chloroquine (CQ) diphosphate was purchased from Sigma (Lyon, France). […] For each assay, each drug dilution was analyzed in triplicate.
# (§4) For the in vitro isotopic microtest, 200 µL of the suspension of synchronous parasitized red blood cells with >90% of the parasites at the ring stage (final parasitaemia, 0.3%; final haematocrit, 4%) per well were plated in 96-well plates that contained serial CQ or compounds concentrations. […] The plates were incubated at 37 °C, in an atmosphere of 5% O2, 5% CO2, and 90% N2 for 48 h. Immediately after incubation, plates were frozen and then thawed to lyse the erythrocytes. Cultures were harvested onto glass fiber filters and washed using a cell harvester (FilterMAT; Skatron Instruments, Dalsletta, Norway). The dried fiber filter papers were mixed with 2 mL of scintillation fluid (OptiScint; Perkin-Elmer, Waltham, UK). […] The initial value and the asymptotic result for high concentrations were fixed to 0% and 100%, respectively, available on the web.
# Pf7G8 = experiment: [3H]hypoxanthine incorporation growth assay, Pf7G8; format: cell-based, Plasmodium falciparum; settings: Plasmodium falciparum
# Method: as §1, §2, §3, §4
# CDK1/cyclin B = CDK1/cyclin B kinase assay ([γ-33P] ATP, histone H1); format: biochemical, starfish; settings: Table A1; read-out: IC50 on HsCDKs HsCDK1
# DYRK1A = system: DYRK1A; design: method as in PMID 17850214; settings: at 0.1 µM; cited from earlier work
# recombinant PfPK5 = system: recombinant PfPK5; design: method as in PMID 10722743, PMID 11434907; settings: cited from earlier work
# Pfmrk = system: Pfmrk; design: method as in PMID 10722743, PMID 11434907; settings: recombinant; cited from earlier work
structure (smiles),measurement,setting,value
"CC(C)[C@H](CO)Nc1nc(Nc2cccc(Cl)c2)c2ncn(C(C)C)c2n1 [Compound 2a, purvalanol A, reference compound]",pIC50,"Pf3D7; 48 h, read-out: Growth IC50 Pf3D7",5.34
same,pIC50,Pf3D7; read-out: IC50 on P. falciparum Strains Pf3D7,5.34
same,pIC50,"Pf7G8; 48 h, read-out: Growth IC50 Pf7G8",5.09
same,pIC50,Pf7G8; read-out: IC50 on P. falciparum Strains Pf7G8,5.09
same,pIC50,CDK1/cyclin B,8.40
same,remaining DYRK1A kinase activity,DYRK1A,88%
same,pIC50,recombinant PfPK5,5.10
same,pIC50,Pfmrk,4.59
